Test results as given in patent US8735361B2, “C1ORF59 peptides and vaccines including the same” (Oncotherapy Science, Inc., priority 2008, dated 2014).

Tests used:
peptide-pulsed A24 LCL [1] = assay: In vitro CTL induction with HLA-A*2402 restricted peptides, IFN-gamma ELISPOT assay; assay type: cell-based, human; details: CTLs from HLA-A*2402 positive donor stimulated with peptide-pulsed DCs; compared to control wells
Excerpt: Monocyte-derived dendritic cells (DCs) were used as antigen-presenting cells (APCs) to induce cytotoxic T lymphocyte (CTL) responses against peptides presented on human leukocyte antigen (HLA). DCs were generated in vitro as described elsewhere (Nakahara S et al., Cancer Res 2003 Jul. 15, 63(14): 4112-8). Specifically, peripheral blood mononuclear cells (PBMCs) isolated from a normal volunteer (HLA-A*2402 positive) by Ficoll-Plaque (Pharmacia) solution were separated by adherence to a plastic tissue culture dish (Becton Dickinson) so as to enrich them as the monocyte fraction. The monocyte-enriched population was cultured in the presence of 1000 U/ml of granulocyte-macrophage colony-stimulating factor (GM-CSF) (R&D System) and 1000 U/ml of interleukin (IL)-4 (R&D System) in AIM-V Medium (Invitrogen) containing 2% heat-inactivated autologous serum (AS). After 7 days of culture, the cytokine-induced DCs were pulsed with 20 micro gram/ml of each of the synthesized peptides in the presence of 3 micro gram/ml of beta 2-microglobulin for 3 hrs at 37 degrees C. in AIM-V Medium. The generated cells appeared to express DC-associated molecules, such as CD80, CD83, CD86 and HLA class II, on their cell surfaces (data not shown). These peptide-pulsed DCs were then inactivated by X-irradiated (20 Gy) and mixed at a 1:20 ratio with autologous CD8+ T cells, obtained by positive selection with CD8 Positive Isolation Kit (Dynal). These cultures were set up in 48-well plates (Corning); each well contained 1.5×10^4 peptide-pulsed DCs, 3×10^5 CD8+ T cells and 10 ng/ml of IL-7 (R&D System) in 0.5 ml of AIM-V/2% AS medium. Three days later, these cultures were supplemented with IL-2 (CHIRON) to a final concentration of 20 IU/ml. On day 7 and 14, the T cells were further stimulated with the autologous peptide-pulsed DCs. The DCs were prepared each time by the same way described above. CTL was tested against peptide-pulsed A24 LCL or T2 cells after the 3rd round of peptide stimulation on day 21 (Tanaka H et al., Br J Cancer 2001 Jan. 5, 84(1): 94-9; Umano Y et al., Br J Cancer 2001 Apr. 20, 84(8): 1052-7; Uchida N et al., Clin Cancer Res 2004 Dec. 15, 10(24): 8577-86; Suda T et al., Cancer Sci 2006 May, 97(5): 411-9; Watanabe T et al., Cancer Sci 2005 August, 96(8): 498-506)
(§1) To examine specific CTL activity, interferon (IFN)-gamma enzyme-linked immunospot (ELISPOT) assay and IFN-gamma enzyme-linked immunosorbent assay (ELISA) were performed. Specifically, peptide-pulsed A24 LCL (1×10^4/well) was prepared as stimulator cells. Cultured cells in 48 wells were used as responder cells. IFN-gamma ELISPOT assay and IFN-gamma ELISA assay were performed under manufacture procedure.

peptide-pulsed A24 LCL [2] = assay: IFN-gamma ELISA assay of expanded CTL lines (HLA-A*2402); assay type: cell-based, human; details: target cells pulsed with corresponding peptide compared to target cells without peptide pulse
Experimental: CTLs were expanded in culture using the method similar to the one described by Riddell et al. (Walter E A et al., N Engl J Med 1995 Oct. 19, 333(16): 1038-44; Riddell S R et al., Nat Med 1996 February, 2(2): 216-23). A total of 5×10^4 CTLs were suspended in 25 ml of AIM-V/5% AS medium with 2 kinds of human B-lymphoblastoid cell lines, inactivated by MMC, in the presence of 40 ng/ml of anti-CD3 monoclonal antibody (Pharmingen). One day after initiating the cultures, 120 IU/ml of IL-2 were added to the cultures. The cultures were fed with fresh AIM-V/5% AS medium containing 30 IU/ml of IL-2 on days 5, 8 and 11 (Tanaka H et al., Br J Cancer 2001 Jan. 5, 84(1): 94-9; Umano Y et al., Br J Cancer 2001 Apr. 20, 84(8): 1052-7; Uchida N et al., Clin Cancer Res 2004 Dec. 15, 10(24): 8577-86; Suda T et al., Cancer Sci 2006 May, 97(5): 411-9; Watanabe T et al., Cancer Sci 2005 August, 96(8): 498-506).
as §1

peptide-pulsed A24 LCL [3] = assay: IFN-gamma ELISA assay of CTL clones established by limiting dilution (HLA-A*2402); assay type: cell-based, human; details: CTL clones against target cells pulsed with peptide
Experimental: The dilutions were made to have 0.3, 1, and 3 CTLs/well in 96 round-bottomed micro titer plate (Nalge Nunc International). CTLs were cultured with 1×10^4 cells/well of 2 kinds of human B-lymphoblastoid cell lines, 30 ng/ml of anti-CD3 antibody, and 125 U/ml of IL-2 in a total of 150 microlitter/well of AIM-V Medium containing 5% AS. 50 microlitter/well of IL-2 were added to the medium 10 days later so to reach a final concentration of 125 U/ml IL-2. CTL activity was tested on the 14th day, and CTL clones were expanded using the same method as described above (Uchida N et al., Clin Cancer Res 2004 Dec. 15, 10(24): 8577-86; Suda T et al., Cancer Sci 2006 May, 97(5): 411-9; Watanabe T et al., Cancer Sci 2005 August, 96(8): 498-506).
as §1

[4] = test system: COS7 cells transfected with C1orf59 and HLA-A*2402; assay: Specific CTL activity against target cells exogenously expressing C1orf59 and HLA-A*2402; assay type: cell-based, African green monkey
Excerpt: The cDNA encoding an open reading frame of target genes or HLA-A24 was amplified by PCR. The PCR-amplified product was cloned into pCAGGS vector. The plasmids were transfected into COS7, which is the target genes and HLA-A24-null cell line, using lipofectamine 2000 (Invitrogen) according to the manufacturer's recommended procedures. After 2 days from transfection, the transfected cells were harvested with versene (Invitrogen) and used as the target cells (5×10^4 cells/well) for CTL activity assay.
The established CTL lines raised against these peptides were examined for their ability to recognize target cells that express C1orf59 and HLA-A*2402 molecule. Specific CTL activity against COS7 cells which transfected with both the full length of C1orf59 and HLA-A*2402 molecule gene (a specific model for the target cells that express C1orf59 and HLA-A*2402 gene) was tested using the CTL lines raised by corresponding peptide as the effecter cells. COS7 cells transfected with either full length of C1orf59 genes or HLA-A*2402 were prepared as control.

GYCTQIGIF [SEQ ID NO: 26]
Peptide specific CTL activity, IFN-gamma production by ELISPOT (peptide-pulsed A24 LCL [1]): potent IFN-gamma production
IFN-gamma production of CTL lines by ELISA (peptide-pulsed A24 LCL [2]): potent IFN-gamma production
IFN-gamma production of CTL clones by ELISA (peptide-pulsed A24 LCL [3]): Potent IFN-gamma productions
Specific CTL activity against control COS7 cells ([4]; COS7 transfected with either full length C1orf59 or HLA-A*2402 alone): no significant specific CTL activity
Specific CTL activity against COS7 cells expressing both C1orf59 and HLA-A*2402 ([4]; CTLs raised by the peptide as effector cells): potent CTL activity
